Test results from PMC8773213, “In Vitro Anticancer Activity and Mechanism of Action of an Aziridinyl Galactopyranoside” (Biomedicines, 2021).
Where two headings read alike, the source gives them in different places.

Key:
[1] = test system: AA8 cells (NER proficient); assay: MTT cell viability assay, AA8 cells; format: cell-based, Chinese hamster; settings: then 48 h in drug-free medium, read-out: IC50 (mean ± SEM), AA8 cells
Procedure: (§1) Exponentially growing cells were seeded in 96-well plates and allowed to attach and grow for 24 h. The cells were then treated with increasing concentrations of the tested drugs. At the end of the treatment period, cell viability was measured with the MTT assay or the resazurin assay, two widely used techniques.
(§2) In the case of the MTT assay, this technique detects viable cells using the ability of these cells to reduce the yellow tetrazolium MTT to an insoluble colored formazan product. Subsequently, this product was solubilized and analyzed by spectrophotometry. Dead cells cannot reduce the MTT into the colored formazan product. Briefly, 24 h after plating, cells were treated with the tested compounds for 48 h; except in experiments with DNA repair-proficient and -deficient cell lines, in which cells were only exposed for 24 h to drugs and allowed to grow for an additional 48 h in drug-free medium to allow them to repair possible DNA damage induced by the tested drugs. […] Finally, plates were incubated overnight at 37 °C and optical densities were measured at 540 nm using an absorbance spectrophotometer microplate reader.
(§3) In both assays, cell viability was expressed as percentage compared to untreated cells. Results were expressed as the means ± standard error of the mean (SEM). […]

UV4 and AA8 cells = assay: Clonogenic survival assay; format: cell-based, Chinese hamster; settings: 10 µM, 24 h, then colonies in drug-free medium
Procedure: Cell survival after treatment was determined by clonogenic assay. AA8 and UV4 cells were seeded in 6 cm Petri dishes 4 h prior to treatment for 24 h. After that, drugs were removed and cells were allowed to form colonies for eight days. The colonies were then stained with 0.4% methylene blue in methanol for 15 min. Surviving colonies made up of more than 50 cells per colony were counted. Results were represented as percentage of survival referred to untreated cells.

A549 cells [2] = format: cell-based; settings: A549, 48 h, antioxidant added 1 h before; MTT
Procedure: as §1
In the case of the MTT assay, this technique detects viable cells using the ability of these cells to reduce the yellow tetrazolium MTT to an insoluble colored formazan product. Subsequently, this product was solubilized and analyzed by spectrophotometry. Dead cells cannot reduce the MTT into the colored formazan product. Briefly, 24 h after plating, cells were treated with the tested compounds for 48 h; except in experiments with DNA repair-proficient and -deficient cell lines, in which cells were only exposed for 24 h to drugs and allowed to grow for an additional 48 h in drug-free medium to allow them to repair possible DNA damage induced by the tested drugs. After the treatment period, the medium was removed, the cells were washed once with PBS and 125 μL MTT (1 mg/mL in medium) was added to each well. Plates were incubated for 2–4 h and then 80 μL 20% SDS in 0.02 M HCl was added to each well. Finally, plates were incubated overnight at 37 °C and optical densities were measured at 540 nm using an absorbance spectrophotometer microplate reader.
(§4) In both assays, cell viability was expressed as percentage compared to untreated cells. Results were expressed as the means ± standard error of the mean (SEM). All data are from at least three independent experiments.

A549 cells [3] = assay: Glycolysis inhibition (glucose consumed, lactate produced); format: cell-based, human; settings: A549, 8 h
Procedure: Inhibition of glycolysis was determined by measuring glucose consumed (initial product of glycolysis) and lactate produced (final product of glycolysis) in untreated and treated cells. Cells were seeded in 6-well plates at a density of 10^6 cells/well and were allowed to attach for a few hours before treatment with the tested compounds for 8 h. After treatment, medium was recollected and glucose and lactate concentrations were determined using the Accutrend® Plus analyzer together with Accutrend glucose strips and BM-Lactate strips (Roche Diagnostics, Barcelona, Spain). After calibrating the instrument with glucose and lactate calibration strips, test strips were used to determine glucose and lactate levels through colorimetric oxidase mediator reactions according to the manufacturer’s instructions. The results are expressed as percentage of glucose consumption and percentage of lactate production in relation to untreated cells. Data were averaged from two independent experiments and shown as mean ± SEM.

A549 lung cancer cells = assay: MTT cytotoxicity of combinations, A549; format: cell-based; settings: 48 h
Procedure: as §1, §2, §3

MRC-5 lung normal cells = assay: MTT cytotoxicity of combinations, MRC-5; format: cell-based; settings: 48 h
Procedure: as §1, §2, §3

[4] = test system: VH10 (Human skin non-malignant cells); assay: Resazurin cell viability assay, VH10; format: cell-based; settings: 72 h, read-out: IC50 (Mean ± SEM, µM), VH10
Procedure: as §1
(§5) The resazurin assay is a redox-based colorimetric/fluorometric technique based on the ability of viable cells to reduce the blue compound resazurin into the pink, fluorescent and soluble product resorufin. The amount of resorufin produced is generally proportional to the number of living cells. In this assay, 24 h after seeding, cells were exposed to the tested drugs for 72 h. Then 100 μL resazurin in medium was added to each well (final concentration of 10 μg/mL) and, one hour later the fluorescence intensity was measured at 530/590 nm (excitation/emission) using a fluorescence microplate reader.
as §4

[5] = test system: HeLa (Human cervical carcinoma cells); assay: Resazurin cell viability assay, HeLa; format: cell-based; settings: 72 h, read-out: IC50 (Mean ± SEM, µM), HeLa
Procedure: as §1, §5, §4

[6] = test system: HepG2 (Human hepatocellular carcinoma cells); assay: Resazurin cell viability assay, HepG2; format: cell-based; settings: 72 h, read-out: IC50 (Mean ± SEM, µM), HepG2
Procedure: as §1, §5, §4

[7] = test system: HL-60 (Human acute promyelocytic leukemia cells); assay: Resazurin cell viability assay, HL-60; format: cell-based; settings: 72 h, read-out: IC50 (Mean ± SEM, µM), HL-60
Procedure: as §1, §5, §4

[8] = test system: NB4 (Human acute promyelocytic leukemia cells); assay: Resazurin cell viability assay, NB4; format: cell-based; settings: 72 h, read-out: IC50 (Mean ± SEM, µM), NB4
Procedure: as §1, §5, §4

[9] = test system: PC3 (Human prostate cancer cells); assay: Resazurin cell viability assay, PC3; format: cell-based; settings: 72 h, read-out: IC50 (Mean ± SEM, µM), PC3
Procedure: as §1, §5, §4

[10] = test system: BJ-SV40T (SV40T-transformed BJ-hTERT cells); assay: Resazurin cell viability assay, BJ-SV40T; format: cell-based; settings: Homo sapiens, 72 h, read-out: IC50 (Mean ± SEM, µM), BJ-SV40T
Procedure: as §1, §5, §4

[11] = test system: cancer cell lines versus MRC-5 and VH10 normal cell lines; assay: Resazurin assay, panel of cancer cells versus normal cells; format: cell-based, human
Procedure: as §1, §5, §4
Next, we evaluated the cytotoxic activity of AzGalp in cancer cell lines derived from solid tumors (HeLa, PC3, U2OS, HepG2 and SW480) and from hematological malignancies (NB4 and HL-60). To study the selectivity against cancer cells, MRC-5 and VH10 cells were used as normal cell lines; 5-FU was used as a positive control. All cells were treated with AzGalp or 5-FU for 72 h and cell viability was evaluated with the resazurin assay. This assay was used to determine cell viability instead of the MTT assay because the HL60 and NB4 cell lines grow in suspension. […] Leukemia cell lines were approximately 15 times more sensitive than normal cells to the cytotoxicity of our aziridine.

[12] = test system: A549 human lung cancer cell line and MRC-5 human lung normal cell line; design: method as in PMID 24177365; settings: MTT assay; cited from earlier work
[13] = 100 μM AzGalp + 10 μM oxaliplatin

## Cc1ccc(S(=O)(=O)N2CC2(C)CO[C@@H]2O[C@@H]3CO[C@H](c4ccccc4)O[C@@H]3[C@H](OCc3ccccc3)[C@H]2OCc2ccccc2)cc1 (stereo partly drawn) [AzGalp, 2-methyl-2,3-[N-(4-methylbenzenesulfonyl)imino]propyl 2,3-di-O-benzyl-4,6-O-(S)-benzylidene-β-D-galactopyranoside]
[1]; 24 h exposure
  IC50: 319 ± 77.2 µM
[1]; Cricetulus griseus, CHO-AA8, 24 h exposure
  IC50: 397 ± 142 µM
UV4 and AA8 cells
  Cell survival, UV4 versus AA8 (clonogenic assay): UV4 cells were more sensitive
A549 cells [2]
  Effect of MnTMPyP on cytotoxicity: Neither MnTMPyP nor catalase prevented the cytotoxicity
  Effect of NAC on cytotoxicity: slightly prevented cytotoxic activity, it was not statistically significant
  Effect of catalase on cytotoxicity: Neither MnTMPyP nor catalase prevented the cytotoxicity
A549 cells [3]
  Glycolytic activity (glucose consumption and lactate production): did not affect the glycolytic activity
A549 lung cancer cells; 100 μM AzGalp + 10 μM 5-FU
  Cytotoxicity of combination with 5-FU, cancer cells: killed more cancer cells than when these drugs were administered individually
A549 lung cancer cells; [13]
  Cytotoxicity of combination with oxaliplatin, cancer cells: killed more cancer cells than when these drugs were administered individually
MRC-5 lung normal cells; 100 μM AzGalp + 10 μM 5-FU
  Cytotoxicity of combination with 5-FU, normal cells: did not increase cytotoxicity against normal cells
MRC-5 lung normal cells; [13]
  Cytotoxicity of combination with oxaliplatin, normal cells: did not increase cytotoxicity against normal cells
[4]
  IC50: 411 ± 39.4 µM
[5]
  IC50: 191 ± 35.8 µM
[6]
  IC50: 122 ± 12.4 µM
[7]
  IC50: 11.1 ± 0.9 µM
[8]
  IC50: 21.4 ± 9.9 µM
[9]
  IC50: 401 ± 14.8 µM
[10]
  IC50: 143 ± 8.1 µM
[11]; HL60 and NB4, concentrations between 10 and 100 µM, 72 h
  Viability of leukemia cells: 5%
[11]; MRC-5 and VH10, concentrations between 10 and 100 µM, 72 h
  Viability of normal cells: did not alter the viability of normal cells
[11]; NB4 and HL-60 versus MRC-5 and VH10, 72 h
  Sensitivity of leukemia cell lines relative to normal cells: approximately 15 times
[11]; versus MRC-5 and VH10, 72 h
  Cytotoxicity against HepG2 and U2OS relative to normal cell lines: approximately 2.5 times
[12]
  Cytotoxicity against A549 lung cancer cells relative to MRC-5 lung normal cells: approximately six times more cytotoxic
